Measured values: US9062078B2, “Substituted 7-azabicyles and their use as orexin receptor modulators” (priority 2013, dated 2015)
Read-outs that look alike come from different tables or passages of the source.

Legend:
[1] = target: rat orexin 1 receptor (Rattus norvegicus, UniProt P56718); test: Rat orexin 1 receptor radioligand binding (competitive, [3H]-SB674042, HEK293 cell preparations)
[2] = target: human orexin 1 receptor (Homo sapiens (Human), UniProt O43613); test: Human orexin 1 receptor radioligand binding (competitive, [3H]-SB674042, CHO cell preparations)
human orexin 1 receptor, sequence (O43613 whole entry): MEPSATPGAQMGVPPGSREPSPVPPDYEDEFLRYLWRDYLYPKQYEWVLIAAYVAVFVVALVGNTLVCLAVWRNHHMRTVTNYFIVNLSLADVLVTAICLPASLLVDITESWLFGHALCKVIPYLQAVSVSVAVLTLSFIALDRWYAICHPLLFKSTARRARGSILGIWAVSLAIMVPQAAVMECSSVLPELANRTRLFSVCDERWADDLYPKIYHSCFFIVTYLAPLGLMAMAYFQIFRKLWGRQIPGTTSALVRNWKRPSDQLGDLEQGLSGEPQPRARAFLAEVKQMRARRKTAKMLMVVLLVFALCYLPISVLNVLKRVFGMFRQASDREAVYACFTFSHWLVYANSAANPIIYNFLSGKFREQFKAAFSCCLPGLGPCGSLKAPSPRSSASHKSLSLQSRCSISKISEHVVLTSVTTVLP

[3] = target: human orexin 2 receptor (Homo sapiens (Human), UniProt O43614); test: Human orexin 2 receptor radioligand binding (competitive, [3H]-EMPA, HEK293 cell preparations)
human orexin 2 receptor, sequence (O43614 whole entry): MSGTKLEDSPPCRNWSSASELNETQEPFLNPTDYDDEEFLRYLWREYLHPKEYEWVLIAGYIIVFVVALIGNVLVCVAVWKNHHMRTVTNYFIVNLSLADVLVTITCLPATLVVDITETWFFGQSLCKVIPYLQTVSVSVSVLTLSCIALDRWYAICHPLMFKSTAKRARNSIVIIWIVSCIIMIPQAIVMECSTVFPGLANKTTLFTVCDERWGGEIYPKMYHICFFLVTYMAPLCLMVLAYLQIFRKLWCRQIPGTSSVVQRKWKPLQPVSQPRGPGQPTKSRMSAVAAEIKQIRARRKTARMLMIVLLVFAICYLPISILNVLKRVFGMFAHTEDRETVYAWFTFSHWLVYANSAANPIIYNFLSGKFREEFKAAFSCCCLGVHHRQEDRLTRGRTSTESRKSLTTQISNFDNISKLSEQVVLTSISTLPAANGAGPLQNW

[4] = rat orexin 1 receptor, [3H]-SB674042 competition binding, read-out: rOX1 Ki (nm)
[5] = human orexin 1 receptor, [3H]-SB674042 competition binding, read-out: hOX1 Ki (nm)
[6] = human orexin 2 receptor, [3H]-EMPA competition binding, read-out: hOX2 Ki (nm)

SMILES	Ki [1, 4]	Ki [2, 5]	Ki [3, 6]	Ki ([1]; rOX1 Ki (nm))	Ki ([2]; hOX1 Ki (nm))	Ki ([3]; hOX2 Ki (nm))
Cc1ccc(-c2ncccn2)c(C(=O)N2C3CCC2C(COc2ccc(F)cn2)C3)n1 (racemic) [Example 64, (±)-(2-(((5-fluoropyridin-2-yl)oxy)methyl)-7-azabicyclo[2.2.1]heptan-7-yl)(6-methyl-3-(pyrimidin-2-yl)pyridin-2-yl)methanone]	18 nM	24 nM	81 nM			
Cc1ccc(-c2nc(C)no2)c(C(=O)N2C3CCC2C(COc2ccc(F)cn2)C3)n1 (racemic) [Example 66, (±)-(2-(((5-fluoropyridin-2-yl)oxy)methyl)-7-azabicyclo[2.2.1]heptan-7-yl)(6-methyl-3-(3-methyl-1,2,4-oxadiazol-5-yl)pyridin-2-yl)methanone]	197 nM	293 nM	620 nM			
Cc1ccc(-n2ccc(C)n2)c(C(=O)N2C3CCC2C(COc2ccc(F)cn2)C3)n1 (racemic) [Example 67, (±)-(2-(((5-fluoropyridin-2-yl)oxy)methyl)-7-azabicyclo[2.2.1]heptan-7-yl)(6-methyl-3-(3-methyl-1H-pyrazol-1-yl)pyridin-2-yl)methanone]	48 nM	69 nM	258 nM			
Cc1ccc(N2CCCC2)c(C(=O)N2C3CCC2C(COc2ccc(F)cn2)C3)n1 (racemic) [Example 68, (±)-(2-(((5-fluoropyridin-2-yl)oxy)methyl)-7-azabicyclo[2.2.1]heptan-7-yl)(6-methyl-3-(pyrrolidin-1-yl)pyridin-2-yl)methanone]	27 nM	22 nM	576 nM			
Cc1cc(-c2ccc(C)nc2C(=O)N2C3CCC2C(COc2ccc(F)cn2)C3)on1 (racemic) [Example 69, (±)-(2-(((5-fluoropyridin-2-yl)oxy)methyl)-7-azabicyclo[2.2.1]heptan-7-yl)(6-methyl-3-(3-methylisoxazol-5-yl)pyridin-2-yl)methanone]			174 nM	40 nM	64 nM	
Cc1ccc(-n2cccn2)c(C(=O)N2C3CCC2C(COc2ccc(F)cn2)C3)n1 (racemic) [Example 70, (±)-(2-(((5-fluoropyridin-2-yl)oxy)methyl)-7-azabicyclo[2.2.1]heptan-7-yl)(6-methyl-3-(1H-pyrazol-1-yl)pyridin-2-yl)methanone]	88 nM	62 nM	624 nM			
Cc1ccnc(C(=O)N2C3CCC2C(COc2ccccn2)C3)c1-n1nccn1 (racemic) [Example 72, (±)-(4-methyl-3-(2H-1,2,3-triazol-2-yl)pyridin-2-yl)(2-((pyridin-2-yloxy)methyl)-7-azabicyclo[2.2.1]heptan-7-yl)methanone]	137 nM	162 nM	2400 nM			
CCOc1ccc2cccnc2c1C(=O)N1C2CCC1C(COc1ccccn1)C2 (racemic) [Example 75, (±)-(7-ethoxyquinolin-8-yl)(2-((pyridin-2-yloxy)methyl)-7-azabicyclo[2.2.1]heptan-7-yl)methanone]	18 nM	7 nM	220 nM			
Cn1cc(-c2ccccc2)c(C(=O)N2C3CCC2C(COc2ccccn2)C3)n1 (racemic) [Example 77, (±)-(1-methyl-4-phenyl-1H-pyrazol-3-yl)(2-((pyridin-2-yloxy)methyl)-7-azabicyclo[2.2.1]heptan-7-yl)methanone]	103 nM	66 nM				867 nM
COc1ccc2cccnc2c1C(=O)N1C2CCC1C(COc1ccccn1)C2 (racemic) [Example 88, (±)-(7-methoxyquinolin-8-yl)(2-((pyridin-2-yloxy)methyl)-7-azabicyclo[2.2.1]heptan-7-yl)methanone]	47 nM	49 nM	690 nM			
CCOc1ccc2ccccc2c1C(=O)N1C2CCC1C(COc1ccccn1)C2 (racemic) [Example 89, (±)-(2-ethoxynaphthalen-1-yl)(2-((pyridin-2-yloxy)methyl)-7-azabicyclo[2.2.1]heptan-7-yl)methanone]	11 nM	10 nM	38 nM			
Cc1nc(C(=O)N2C3CCC2C(COc2ccccn2)C3)c(-c2ccccc2)s1 (racemic) [Example 92, (±)-(2-methyl-5-phenylthiazol-4-yl)(2-((pyridin-2-yloxy)methyl)-7-azabicyclo[2.2.1]heptan-7-yl)methanone]			218 nM	20 nM	11 nM	
Cc1ccc(-c2ncco2)c(C(=O)N2C3CCC2C(COc2ccccn2)C3)n1 (racemic) [Example 93, (±)-(6-methyl-3-(oxazol-2-yl)pyridin-2-yl)(2-((pyridin-2-yloxy)methyl)-7-azabicyclo[2.2.1]heptan-7-yl)methanone]	40 nM	73 nM				836 nM
Cc1cc(-c2ccc(C)nc2C(=O)N2C3CCC2C(COc2ccccn2)C3)on1 (racemic) [Example 94, (±)-(6-methyl-3-(3-methylisoxazol-5-yl)pyridin-2-yl)(2-((pyridin-2-yloxy)methyl)-7-azabicyclo[2.2.1]heptan-7-yl)methanone]	170 nM	200 nM	2100 nM			
Cc1cnn(-c2ccc(C)nc2C(=O)N2C3CCC2C(COc2ccccn2)C3)c1 (racemic) [Example 96, (±)-(6-methyl-3-(4-methyl-1H-pyrazol-1-yl)pyridin-2-yl)(2-((pyridin-2-yloxy)methyl)-7-azabicyclo[2.2.1]heptan-7-yl)methanone]	70 nM	76 nM	950 nM			
Cc1ccc(N2CCCC2)c(C(=O)N2C3CCC2C(COc2ccccn2)C3)n1 (racemic) [Example 97, (±)-(6-methyl-3-(pyrrolidin-1-yl)pyridin-2-yl)(2-((pyridin-2-yloxy)methyl)-7-azabicyclo[2.2.1]heptan-7-yl)methanone]	35 nM	32 nM	840 nM			
COc1cccc(-n2nccn2)c1C(=O)N1C2CCC1C(COc1ccc(F)cn1)C2 (racemic) [Example 108, (±)-(2-(((5-fluoropyridin-2-yl)oxy)methyl)-7-azabicyclo[2.2.1]heptan-7-yl)(2-methoxy-6-(2H-1,2,3-triazol-2-yl)phenyl)methanone]	10 nM	12 nM	12 nM			
O=C(c1cc(F)ccc1-c1ccn[nH]1)N1C2CCC1C(COc1ccc(F)cn1)C2 (racemic) [Example 109, (±)-(5-fluoro-2-(1H-pyrazol-5-yl)phenyl)(2-(((5-fluoropyridin-2-yl)oxy)methyl)-7-azabicyclo[2.2.1]heptan-7-yl)methanone]				29 nM	20 nM	99 nM
Cc1cccc(-n2nccn2)c1C(=O)N1C2CCC1C(COc1ccc(F)cn1)C2 (racemic) [Example 110, (±)-(2-(((5-fluoropyridin-2-yl)oxy)methyl)-7-azabicyclo[2.2.1]heptan-7-yl)(2-methyl-6-(2H-1,2,3-triazol-2-yl)phenyl)methanone]	54 nM	67 nM	94 nM			
COc1ccc(-n2nccn2)c(C(=O)N2C3CCC2C(COc2ccc(F)cn2)C3)c1 (racemic) [Example 114, (±)-(2-(((5-fluoropyridin-2-yl)oxy)methyl)-7-azabicyclo[2.2.1]heptan-7-yl)(5-methoxy-2-(2H-1,2,3-triazol-2-yl)phenyl)methanone]				20 nM	48 nM	73 nM
O=C(c1c(F)cccc1-n1nccn1)N1C2CCC1C(COc1ccc(F)cn1)C2 (racemic) [Example 115, (±)-(2-fluoro-6-(2H-1,2,3-triazol-2-yl)phenyl)(2-(((5-fluoropyridin-2-yl)oxy)methyl)-7-azabicyclo[2.2.1]heptan-7-yl)methanone]				57 nM	78 nM	108 nM
O=C(c1ccc(F)cc1-n1nccn1)N1C2CCC1C(COc1ccc(F)cn1)C2 (racemic) [Example 116, (±)-(4-fluoro-2-(2H-1,2,3-triazol-2-yl)phenyl)(2-(((5-fluoropyridin-2-yl)oxy)methyl)-7-azabicyclo[2.2.1]heptan-7-yl)methanone]	142 nM	250 nM	315 nM			
O=C(c1cccc(F)c1-n1nccn1)N1C2CCC1C(COc1ccc(F)cn1)C2 (racemic) [Example 117, (±)-(3-fluoro-2-(2H-1,2,3-triazol-2-yl)phenyl)(2-(((5-fluoropyridin-2-yl)oxy)methyl)-7-azabicyclo[2.2.1]heptan-7-yl)methanone]			245 nM	62 nM	82 nM	
O=C(c1cc(Cl)ccc1-n1nccn1)N1C2CCC1C(COc1ccc(F)cn1)C2 (racemic) [Example 120, (±)-(5-chloro-2-(2H-1,2,3-triazol-2-yl)phenyl)(2-(((5-fluoropyridin-2-yl)oxy)methyl)-7-azabicyclo[2.2.1]heptan-7-yl)methanone]	15 nM	14 nM	124 nM			
Cc1ccc(C(=O)N2C3CCC2C(COc2ccc(F)cn2)C3)c(-n2nccn2)c1 (racemic) [Example 121, (±)-(2-(((5-fluoropyridin-2-yl)oxy)methyl)-7-azabicyclo[2.2.1]heptan-7-yl)(4-methyl-2-(2H-1,2,3-triazol-2-yl)phenyl)methanone]	78 nM	68 nM	340 nM			
Cc1ccc(C(=O)N2C3CCC2C(COc2ccc(F)cn2)C3)c(-c2ncccn2)c1 (racemic) [Example 122, (±)-(2-(((5-fluoropyridin-2-yl)oxy)methyl)-7-azabicyclo[2.2.1]heptan-7-yl)(4-methyl-2-(pyrimidin-2-yl)phenyl)methanone]	118 nM	154 nM	1000 nM			
O=C(c1cccc(F)c1-c1ncccn1)N1C2CCC1C(COc1ccc(F)cn1)C2 (racemic) [Example 124, (±)-(3-fluoro-2-(pyrimidin-2-yl)phenyl)(−2-(((5-fluoropyridin-2-yl)oxy)methyl)-7-azabicyclo[2.2.1]heptan-7-yl)methanone]			355 nM	83 nM	52 nM	
